US20240398768A1, “METHODS OF TREATING SOLID TUMOR USING HETEROAROMATIC MACROCYCLIC ETHER COMPOUNDS” (Nuvalent, Inc., priority 2021, published 2024)

Tests used:
Ba/F3 CLIP1-LTK = target: T1, Ba/F3 CLIP1-LTK (Homo sapiens, UniProt P29376); test: Cell viability assay for LTK cell line; type: cell-based; conditions: 72 hours
T1 construct: expressed in transfected cells; host or cells: Ba/F3 (RIKEN), pMSCV-puro retrovirus; the other entry of the earlier key: CLIP1 (P30622, CAP-Gly domain-containing linker protein 1)
Description: Generation of Ba/F3 Stable Cell Lines: Genes encoding CLIP1-LTK were synthesized, cloned into the retroviral construct pMSCV-puro (Biovector), and packaged into retroviral particles. The virus was used to infect Ba/F3 cells (RIKEN) at multiplicity of infection=1 or 10 for 1 day. Infected cells were rescued in media (RPMI-1640 with 10% fetal bovine serum and 1% streptomycin and penicillin) supplemented with mouse IL-3 (10 ng/mL) for 2 days, and stable cell lines were selected by IL-3 withdrawal and puromycin (0.8 μg/mL) for 7 days. Transformation of desired genes was confirmed by Sanger sequencing and western blot.
Cell Proliferation Assay: Stable cells were plated at 1,000 cells/well (40 μL) in a 384-well plate for 1 day. Test compounds (40 nL) were then added in a 3-fold dilution series using the TECAN EVO200 liquid handler and incubated for 72 hours. Plates were equilibrated at room temperature for 15 minutes followed by addition of 40 μL CellTiter-Glo reagent (Promega). Luminescence was measured on a plate reader. Half-maximal inhibitory concentration (IC50) was calculated from percent inhibition and inhibitor concentration using four-parameter logistic regression.

[1] = test system: Lu01-0414 PDX (SDC4-ROS1); test: PDX efficacy model LU-01-0414; type: in vivo, mice; conditions: ROS1 PDX models of FIG. 2A-2C
CYP1A2 = target: T2, CYP1A2 (Homo sapiens, UniProt P05177); test: CYP inhibition; type: in vitro ADME
T2 sequence (P05177 1-516): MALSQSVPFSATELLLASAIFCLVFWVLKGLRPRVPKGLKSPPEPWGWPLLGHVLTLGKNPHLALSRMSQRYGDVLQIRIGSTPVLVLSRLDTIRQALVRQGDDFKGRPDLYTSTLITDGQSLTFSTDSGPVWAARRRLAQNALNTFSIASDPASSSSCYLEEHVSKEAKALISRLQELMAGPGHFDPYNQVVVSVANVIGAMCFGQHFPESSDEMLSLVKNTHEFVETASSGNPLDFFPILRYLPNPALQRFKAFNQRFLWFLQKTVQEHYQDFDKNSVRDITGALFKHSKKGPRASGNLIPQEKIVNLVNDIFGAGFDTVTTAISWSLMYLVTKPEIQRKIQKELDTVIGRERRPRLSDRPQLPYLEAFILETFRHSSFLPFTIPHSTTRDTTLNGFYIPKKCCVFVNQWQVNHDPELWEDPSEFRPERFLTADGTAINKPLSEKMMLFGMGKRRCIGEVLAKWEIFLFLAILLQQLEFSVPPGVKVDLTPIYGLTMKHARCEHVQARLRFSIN

CYP2B6 [2] = target: T3, CYP2B6 (Homo sapiens, UniProt P20813); test: CYP inhibition; type: in vitro ADME
T3 sequence (P20813 1-491): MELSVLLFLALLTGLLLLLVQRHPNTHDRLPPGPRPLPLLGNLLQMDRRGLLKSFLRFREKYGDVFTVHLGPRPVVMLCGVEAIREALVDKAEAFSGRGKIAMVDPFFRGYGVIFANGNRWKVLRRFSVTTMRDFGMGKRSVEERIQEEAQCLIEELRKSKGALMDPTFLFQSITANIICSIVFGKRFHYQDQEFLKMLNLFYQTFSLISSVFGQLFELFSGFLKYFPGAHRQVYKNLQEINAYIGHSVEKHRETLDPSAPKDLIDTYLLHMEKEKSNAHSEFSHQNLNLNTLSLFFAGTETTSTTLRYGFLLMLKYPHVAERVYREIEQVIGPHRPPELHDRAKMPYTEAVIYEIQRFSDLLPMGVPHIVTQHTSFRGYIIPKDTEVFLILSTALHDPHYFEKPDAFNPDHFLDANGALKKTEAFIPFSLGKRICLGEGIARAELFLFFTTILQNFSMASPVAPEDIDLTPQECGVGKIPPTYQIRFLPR

CYP2C8 [3] = target: T4, CYP2C8 (Homo sapiens, UniProt P10632); test: CYP inhibition; type: in vitro ADME
T4 sequence (P10632 1-490): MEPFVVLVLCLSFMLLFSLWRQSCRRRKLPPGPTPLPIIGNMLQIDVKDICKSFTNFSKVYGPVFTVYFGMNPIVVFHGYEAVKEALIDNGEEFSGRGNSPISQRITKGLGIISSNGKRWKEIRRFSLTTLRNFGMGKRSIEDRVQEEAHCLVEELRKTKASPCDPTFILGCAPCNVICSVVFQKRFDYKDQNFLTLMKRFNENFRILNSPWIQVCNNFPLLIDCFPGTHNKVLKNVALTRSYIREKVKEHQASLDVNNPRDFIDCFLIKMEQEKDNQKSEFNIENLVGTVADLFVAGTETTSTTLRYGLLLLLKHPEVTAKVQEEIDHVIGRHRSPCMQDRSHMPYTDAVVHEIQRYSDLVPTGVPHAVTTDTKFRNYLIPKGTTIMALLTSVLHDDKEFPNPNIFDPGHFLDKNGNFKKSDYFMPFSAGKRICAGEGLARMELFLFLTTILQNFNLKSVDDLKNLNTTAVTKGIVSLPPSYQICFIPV

CYP2C9 [4] = target: T5, CYP2C9 (Homo sapiens, UniProt P11712); test: CYP inhibition; type: in vitro ADME
CYP3A4 = CYP3A4 (Homo sapiens, UniProt P08684); test: CYP inhibition; type: in vitro ADME; conditions: for IC50: CYP3A4 inhibition
CYP2B6 [5] = target: T3, CYP2B6; test: CYP substrate assessment; type: in vitro ADME
CYP2C9 [6] = target: T5, CYP2C9; test: CYP substrate assessment; type: in vitro ADME
CYP2C19 = CYP2C19 (Homo sapiens, UniProt P33261); test: CYP substrate assessment; type: in vitro ADME
CYP2D6 = CYP2D6 (Homo sapiens, UniProt P10635); test: CYP substrate assessment; type: in vitro ADME
CYP2C8 [7] = target: T4, CYP2C8; test: CYP substrate assessment; type: in vitro ADME

CYP3A4, sequence (P08684 whole entry): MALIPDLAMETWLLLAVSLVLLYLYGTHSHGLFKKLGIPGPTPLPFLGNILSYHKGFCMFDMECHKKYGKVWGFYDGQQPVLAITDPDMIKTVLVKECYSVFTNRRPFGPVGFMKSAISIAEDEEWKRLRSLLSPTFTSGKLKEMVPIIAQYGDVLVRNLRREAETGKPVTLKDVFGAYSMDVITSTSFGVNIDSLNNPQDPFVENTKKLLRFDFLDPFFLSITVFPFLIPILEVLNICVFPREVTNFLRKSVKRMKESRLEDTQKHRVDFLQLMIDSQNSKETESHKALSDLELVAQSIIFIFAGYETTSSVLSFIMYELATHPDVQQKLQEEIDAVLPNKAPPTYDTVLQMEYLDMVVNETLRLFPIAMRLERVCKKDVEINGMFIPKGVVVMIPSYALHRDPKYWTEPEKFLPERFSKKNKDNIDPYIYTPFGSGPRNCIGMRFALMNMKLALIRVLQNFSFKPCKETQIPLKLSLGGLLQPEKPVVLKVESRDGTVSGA
T5 sequence (P11712 whole entry): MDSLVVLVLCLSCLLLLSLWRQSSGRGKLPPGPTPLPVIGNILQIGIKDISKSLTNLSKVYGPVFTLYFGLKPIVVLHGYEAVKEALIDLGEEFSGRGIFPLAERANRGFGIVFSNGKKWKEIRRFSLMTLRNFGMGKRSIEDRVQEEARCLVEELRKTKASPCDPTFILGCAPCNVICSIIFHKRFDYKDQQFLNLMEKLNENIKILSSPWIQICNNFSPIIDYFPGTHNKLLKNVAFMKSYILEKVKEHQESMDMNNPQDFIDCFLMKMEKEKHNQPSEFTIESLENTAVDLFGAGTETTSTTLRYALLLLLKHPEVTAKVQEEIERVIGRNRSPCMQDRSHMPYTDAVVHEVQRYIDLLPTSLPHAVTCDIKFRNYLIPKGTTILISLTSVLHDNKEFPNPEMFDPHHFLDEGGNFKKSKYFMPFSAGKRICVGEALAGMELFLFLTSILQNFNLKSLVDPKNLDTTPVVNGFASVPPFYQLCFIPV
T1 sequence (P29376 450-864 limits assumed): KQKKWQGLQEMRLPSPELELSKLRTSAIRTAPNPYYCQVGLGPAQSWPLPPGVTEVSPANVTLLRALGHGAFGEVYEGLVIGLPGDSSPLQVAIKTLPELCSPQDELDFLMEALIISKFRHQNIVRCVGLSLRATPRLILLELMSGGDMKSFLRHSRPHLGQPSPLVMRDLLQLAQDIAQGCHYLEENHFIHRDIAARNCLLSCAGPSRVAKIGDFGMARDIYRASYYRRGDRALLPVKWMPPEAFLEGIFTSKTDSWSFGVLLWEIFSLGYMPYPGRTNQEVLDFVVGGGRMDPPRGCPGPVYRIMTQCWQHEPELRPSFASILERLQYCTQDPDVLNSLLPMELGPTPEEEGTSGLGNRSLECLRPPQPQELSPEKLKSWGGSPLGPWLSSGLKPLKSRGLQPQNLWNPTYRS
CYP2C19, sequence (P33261 whole entry): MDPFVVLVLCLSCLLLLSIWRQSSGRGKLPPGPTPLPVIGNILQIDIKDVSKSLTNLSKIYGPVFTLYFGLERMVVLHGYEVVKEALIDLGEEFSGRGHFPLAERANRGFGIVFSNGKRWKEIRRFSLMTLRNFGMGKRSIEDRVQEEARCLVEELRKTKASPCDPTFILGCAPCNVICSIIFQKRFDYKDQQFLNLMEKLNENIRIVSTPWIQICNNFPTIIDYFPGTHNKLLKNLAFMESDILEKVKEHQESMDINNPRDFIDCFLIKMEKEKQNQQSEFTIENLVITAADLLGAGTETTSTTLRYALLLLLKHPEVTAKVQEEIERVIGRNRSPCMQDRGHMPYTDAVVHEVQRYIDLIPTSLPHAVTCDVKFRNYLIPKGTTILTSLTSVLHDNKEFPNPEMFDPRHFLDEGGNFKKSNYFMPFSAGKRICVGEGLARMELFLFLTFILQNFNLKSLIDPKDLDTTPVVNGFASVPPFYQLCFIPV
CYP2D6, sequence (P10635 whole entry): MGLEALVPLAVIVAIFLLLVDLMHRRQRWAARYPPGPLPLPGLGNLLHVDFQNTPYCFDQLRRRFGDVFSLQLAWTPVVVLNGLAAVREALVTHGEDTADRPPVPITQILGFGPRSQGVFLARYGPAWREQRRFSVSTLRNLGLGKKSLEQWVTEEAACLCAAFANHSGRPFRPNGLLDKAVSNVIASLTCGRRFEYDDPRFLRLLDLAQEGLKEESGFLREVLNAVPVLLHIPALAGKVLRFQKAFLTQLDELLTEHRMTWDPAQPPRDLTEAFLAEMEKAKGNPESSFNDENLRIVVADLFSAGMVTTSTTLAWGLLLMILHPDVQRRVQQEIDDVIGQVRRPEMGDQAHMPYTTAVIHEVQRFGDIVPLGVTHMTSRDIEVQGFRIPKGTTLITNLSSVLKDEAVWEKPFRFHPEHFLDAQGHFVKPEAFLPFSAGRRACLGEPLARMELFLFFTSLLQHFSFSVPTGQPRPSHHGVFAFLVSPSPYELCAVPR

CCn1ncc2c1-c1cnc(N)c(c1)O[C@H](C)c1cc(F)ccc1-c1nn(C)nc1C2 [Compound 1, (19R)-3-ethyl-16-fluoro-10,19-dimethyl-20-oxa-3,4,9,10,11,23-hexaazapentacyclo [19.3.1.0^2,^6.0^8,^12.0^13,^18]pentacosa-1 (24),2 (6),4,8,11,13,15,17,21 (25),22-decaen-22-amine]
IC50 (Ba/F3 CLIP1-LTK): 0.00957 µM
body weight [1]: No significant changes
IC50 (CYP1A2): > 100 µM
IC50 (CYP2B6 [2]): > 100 µM
IC50 (CYP2C8 [3]): 70 µM
IC50 (CYP2C9 [4]): 70.3 µM
inhibitor of CYP3A4 (testosterone) and CYP3A4 (midazolam) (CYP3A4): potential inhibitor
IC50 (CYP3A4; midazolam): 30 µM
IC50 (CYP3A4; testosterone): 62.7 µM
substrate for CYP2B6 (CYP2B6 [5]): not considered a substrate
substrate for CYP2C9 (CYP2C9 [6]): not considered a substrate
substrate for CYP2C19 (CYP2C19): not considered a substrate
substrate for CYP2D6 (CYP2D6): not considered a substrate
metabolism contribution from CYP2C8 (CYP2C8 [7]): potential for contributions
